Here are results for 8 compounds from patent US4299830A, “1,5-Methano-1,4-benzodiazocines, intermediates therefor, and method of use and compositions thereof” (Sterling Drug Inc., priority 1980, dated 1981).

Data set [1] in a line: Tail-flick Antagonist Test against phenazocine. Particulars: for antagonist response at 1 mg./kg.: 1 mg./kg. subcutaneous; for antagonist response at 10 mg./kg.: 10 mg./kg. subcutaneous; for ED50: Rattus norvegicus, read-out: AD50 (95% Confidence Limits).
A short description of the next data set: Anti-bradykinin Test. It is filed as in vivo. Particulars: rats, expressed as free base; for ED50: Rattus norvegicus, read-out: ED50 (95% Confidence Limits).
Data set [2] can be described thus: Anti-acetylcholine Writhing Test. Particulars: mice; for ED50: Mus musculus, read-out: ED50 (95% Confidence Limits); for ED50 / ED50 (95% Confidence Limits): expressed as free base. It is filed as in vivo. An excerpt: This response has been called writhing.
Another data set in a line: Tail-flick Agonist Test. The note with it: doses up to 120 mg./kg. subcutaneously, rats. It is filed as in vivo.
Data set [3] is described as follows: Tail-flick Antagonist Test against morphine. The note with it: Rattus norvegicus, read-out: AD50 (95% Confidence Limits).
Data set [4] in a line: Tail-flick Antagonist Test against meperidine. The note with it: Rattus norvegicus, read-out: AD50 (95% Confidence Limits).
Data set [5] is described as follows: EDTA Antinociceptive Test. The note with it: Cavia porcellus, sc, 0.5 h; subcutaneous, guinea pig, 30 minutes; read-out: subcutaneously effective dose (reduces the response score to 6 or less). It is filed as in vivo. The method, then:
This is also a confirmatory evaluation of analgesic activity. The test animal is the guinea pig. A threshold intradermal dose of ethylenediaminetetraacetic acid (EDTA) which can reproducibly elicit a cumulative response score of 12-18 discrete episodes of jumping, rearing, running, vocalization and biting or scratching at the site of injection within 40 seconds after challenge is determined for each animal. Thirty minutes after the administration of saline or test compound to 6-7 animals per dose, each animal is again challenged with its own threshold dose of EDTA. An effective drug dose is considered to be one which reduces the response score to 6 or less.

A short description of data set [6]: Anti-phenylquinone Writhing Test. The data set is classed as in vivo. The note with it: Mus musculus, mice, expressed as free base, read-out: ED50 (95% Confidence Limits).
Data set [7] can be described thus: Comparison in three of the foregoing tests with the compound lacking 9-amino. The note with it: relative to Gubitz compound.

With `CCCCNc1ccc2c(c1)N1CCN(CC3CC3)C(C2)C1` (stereo not shown) [Example 4B, 4-cyclopropylmethyl-9-butylamino-3,4,5,6-tetrahydro-2H-1,5-methano-1,4-benzodiazocine], the “antagonist response at 1 mg./kg.” value in data set [1] (against phenazocine) is 6%. Moreover, the “antagonist response at 10 mg./kg.” value in [1] (against phenazocine) amounted to 0%. In addition, in data set [1] (20 mg./kg. subcutaneous, against phenazocine), the “antagonist response at 20 mg./kg.” value stood at 34%. The “toxic effects at 20 mg./kg.” value in [1] (20 mg./kg. subcutaneous, rats) is given as “toxic effects”. In addition, the ED50 in the data set “Anti-bradykinin Test” (sc, subcutaneous) came out at 2.9 mg/kg; in data set [2] (sc, subcutaneous), 1.6 mg/kg. Moreover, the tail-flick agonist activity result in the data set “Tail-flick Agonist Test” is “at most inactive or questionably active”.
Take `CCS(=O)(=O)O.CCS(=O)(=O)O.Nc1ccc2c(c1)N1CCN(CC3CC3)C(C2)C1` (stereo not shown) [Example 1E, 4-cyclopropylmethyl-9-amino-3,4,5,6-tetrahydro-2H-1,5-methano-1,4-benzodiazocine diethanesulfonate]: the ED50 in data set [3] (po) was 13 mg/kg; in [1] (po), 3.5 mg/kg; in the data set “Anti-bradykinin Test” (oral), 4.2 mg/kg; in data set [4] (po) it was 4.8 mg/kg; in data set [2] (sc, subcutaneous) it was 3.7 mg/kg. Besides, the tail-flick agonist activity entry in the data set “Tail-flick Agonist Test” was “at most inactive or questionably active”.
`C=CCN1CCN2CC1Cc1ccc(N)cc12` (stereo not shown) [Example 2E, 4-allyl-9-amino-3,4,5,6-tetrahydro-2H-1,5-methano-1,4-benzodiazocine diethanesulfonate hemihydrate]: the ED50 worked out at 1.6 mg/kg in data set [1] (sc) and 30 mg/kg in data set [2] (sc, subcutaneous).
Turning to `c1ccc2c(c1)CC1CN2CCN1CC1CC1` (stereo not shown) [Compound of Formula A*, 4-cyclopropylmethyl-3,4,5,6-tetrahydro-2H-1,5-methano-1,4-benzodiazocine, reference compound], the ED50 in data set [1] (sc) is 34 mg/kg; in the data set “Anti-bradykinin Test” (sc, subcutaneous), 21 mg/kg; in data set [2] (po), 32 mg/kg; in data set [2] (sc, subcutaneous) it was 12 mg/kg.
On to `Nc1ccc2c(c1)N1CCN(CC3CC3)C(C2)C1` (racemic) [Example 1D, 4-cyclopropylmethyl-9-amino-3,4,5,6-tetrahydro-2H-1,5-methano-1,4-benzodiazocine], for which the ED50 in data set [3] (sc) is 8.6 mg/kg; in [1] (sc), 1.6 mg/kg; in the data set “Anti-bradykinin Test” (sc, subcutaneous), 2.6 mg/kg; in “Anti-bradykinin Test” (oral), 5.4 mg/kg; in data set [4] (sc), 3.3 mg/kg; in data set [2] (po), 5.9 mg/kg. For the same compound, the ED50 was 3.2 mg/kg in [2] (sc, subcutaneous); 1.8 mg/kg in [6] (sc, subcutaneous); 5.7 mg/kg in data set [6] (oral). Besides, in data set [1] (subcutaneous, against phenazocine, expressed as free base), the “AD50 (95% Confidence Limits)” value is on record as 1.6 (1.0-2.6) mg./kg. Further, the “ED50 (95% Confidence Limits)” value in the data set “Anti-bradykinin Test” (subcutaneous) is reported as 2.6 (1.5-4.1) Mg./Kg; in data set [2] (oral), 5.9 (3.9-8.7) Mg./Kg; in data set [2] (subcutaneous), 3.2 (2.0-4.8) Mg./Kg. Besides, in data set [5], the minimal effective dose turned out to be 1.25 mg/kg. The tail-flick agonist activity entry in “Tail-flick Agonist Test” is “at most inactive or questionably active”. For the same compound, in [7], the “times more potent than the compound of Formula A (lacking 9-amino)” value is reported as “four to ten”.
Consider `Nc1ccc2c(c1)N1CCN(CC3CC3)C(C2)C1` (stereo not shown) [Example 1K, dextro-4-cyclpropylmethyl-9-amino-3,4,5,6-tetrahydro-2H-1,5-methano-1,4-benzodiazocine], for which the ED50 in data set [1] (sc) stood at 0.31 mg/kg. Besides, the “ED50 (95% Confidence Limits)” value in data set [2] (subcutaneous) is 1.0 (0.62-2.0) Mg./Kg.
For `CCNc1ccc2c(c1)N1CCN(CC3CC3)C(C2)C1.Cl.Cl` (stereo not shown) [Example 3B, 4-cyclopropylmethyl-9-ethylamino-3,4,5,6-tetrahydro-2H-1,5-methano-1,4-benzodiazocine dihydrochloride], the ED50 in data set [1] (sc) was determined as 4.4 mg/kg; in “Anti-bradykinin Test” (sc, subcutaneous) it was 3.4 mg/kg; in data set [2] (sc, subcutaneous), 3.8 mg/kg. Also, the tail-flick agonist activity entry in “Tail-flick Agonist Test” was “at most inactive or questionably active”.
Turning to `Nc1ccc2c(c1)N1CCN(CC3CC3)C(C2)C1` (stereo not shown) [Example 1J, levo-4-cyclopropylmethyl-9-3,4,5,6-tetrahydro-2H-1,5-methano-1,4-benzodiazocine], in [1] (against phenazocine), the “antagonist response at 1 mg./kg.” value came to 10% and the “antagonist response at 10 mg./kg.” value was determined as 6%. Besides, the “antagonist response at 80 mg./kg.” value in data set [1] (80 mg./kg. subcutaneous, against phenazocine) worked out at 25%. Also, the “response at 75 mg./kg. (highest dose tested)” value in data set [2] (75 mg./kg. subcutaneous) is 67%. Further, the “ED50 (95% Confidence Limits)” value in [2] (subcutaneous) is on record as 40 Mg./Kg.
